Laboratory results reported in patent publication US20110146678A1, “PROCESS FOR IMPROVING CRYSTALLINITY” (priority 2008, published 2011).
Where a name gives a salt, the structure may show the parent alone.

Experiments:
Format in all cases: physicochemical
[1] = Respirable fraction / FPF by Next Generation Impactor (general summary); conditions: particles of the present invention vs prior art
Excerpt: The particle size distribution of the aerosol formulations according to the invention may be measured by conventional techniques, for example by using a Next Generation Impactor (NGI) with pre-separator for example by cascade impaction or by the “Twin Impinger” analytical process. As used herein reference to the “Twin Impinger” assay means “Determination of the deposition of the emitted dose in pressurised inhalations using apparatus A” as defined in British Pharmacopoeia 1988, pages A204-207, Appendix XVII C. Such methods involve filling the pre-separator with HPLC mobile phase and the cups of the NGI cups were coated with 1% v/v silicone oil in hexane to eliminate particle bounce. […] The mass of drug deposited on each part of the NGI can then be determined by HPLC. The FPD determined represents the mass of drug collected on stages 3-8 of the NGI. The FPF emitted dose is also determined. The aerosolisation efficiency as determined by percentage fine particle fraction (% FPF) or respirable fraction is also assessed.
Such techniques enable the “respirable fraction” of the aerosol formulations to be calculated. As used herein reference to “respirable fraction” means the amount of active ingredient collected in the lower chamber in the NGI per actuation expressed as a percentage of the total amount of active ingredient delivered per actuation using the method described above. […]

[2] = pMDI formulation, particle fraction distribution on NGI stages; conditions: stage 5 cut-off 1.36 μm
Protocol: Both samples were produced in a similar manner to sample 2 of Example 2. Sample 1 was prepared from atomization of a 3% solution of fluticasone propionate in 20% dichloromethane in methanol (3 g in 100 ml) and Sample 5 was prepared from atomization of 3% solution in acetone (3 g in 100 ml). […] The FPF values were 11.80% and 13.80% on stage 5 for samples 5 and 1 respectively compared with 6.20% for micronized material.

[3] = Aerosolisation efficiency of binary DPI formulations (0.4% w/w FP in lactose), NGI via Rotahaler; conditions: optimal particles
Protocol: The aerosolization efficiency of samples 2, 3 and 4 of engineered FP were evaluated using binary formulations containing 0.4% w/w FP.
Each binary formulation contained 0.016 g FP and 3.984 g lactose (ML001, DMV-Fonterra, Vehgel, Netherlands) and was prepared by geometric mixing. Following this, the blend was subsequently prepared using a Turbula T2F (Willy A Bachofen A G, Basel, Switzerland) at 46 rpm for 45 minutes.
Following content uniformity testing, 12.5±1 mg of each blend was loaded into size 3 hydroxypropylmethyl cellulose capsules (HPMC, Shionogi Qualicaps S A, Basingstoke, UK). The capsules were stored at 44% RH for 24 h prior to in vitro performance testing.
Testing was performed using a Next Generation Impactor (NGI) with pre-separator, which was connected to a vacuum pump (GE Motors). Prior to testing, the pre-separator was filled with 15 ml of mobile phase and the cups of the NGI cups were coated with 1% v/v silicone oil in hexane to eliminate particle bounce.
For each experiment, four individual capsules of the same formulation were discharged into the NGI at 60 Lpm for 4 s via a Rotahaler (GSK, Ware, UK) DPI device. Additionally, blisters from a Flixotide Diskus (GSK, Ware, UK) were emptied and loaded into size 3 HPMS capsules and discharged into a NGI at 60 Lpm1 for 4 s via a Rotahaler. Following aerosolization, the NGI apparatus was dismantled and the inhaler, capsules and each part of the NGI was washed down into known volumes of HPLC mobile phase.
The mass of drug deposited on each part of the NGI was determined by HPLC. This protocol was repeated three times for each blend, following which, the mass median aerodynamic diameter (MMAD), geometric standard deviation (GSD), fine particle dose (FPD) and fine particle fraction of the emitted dose (FPFED) were determined. The FPD represented the mass of drug that was collected on stages 3-8 of the NGI.

## CC(Cc1ccc(O)cc1)NCC(O)c1cc(O)cc(O)c1 (stereo not drawn) [Fenoterol hydrobromide]
[1]
  increase in FPF compared to the prior art: 30-50%

## CCC(=O)O[C@]1(C(=O)SCF)[C@H](C)C[C@H]2[C@@H]3C[C@H](F)C4=CC(=O)C=C[C@]4(C)[C@@]3(F)[C@@H](O)C[C@@]21C [Sample 1, fluticasone propionate]
[2]
  FPF on stage 5 of the NGI: 13.80%

## CCC(=O)O[C@]1(C(=O)SCF)[C@H](C)C[C@H]2[C@@H]3C[C@H](F)C4=CC(=O)C=C[C@]4(C)[C@@]3(F)[C@@H](O)C[C@@]21C [Sample 5, fluticasone propionate]
[2]
  FPF on stage 5 of the NGI: 11.80%

## CCC(=O)O[C@]1(C(=O)SCF)[C@H](C)C[C@H]2[C@@H]3C[C@H](F)C4=CC(=O)C=C[C@]4(C)[C@@]3(F)[C@@H](O)C[C@@]21C [fluticasone propionate]
[1]
  increase in FPF compared to the prior art: 50-60%
[3]
  FPF greater than micronized/milled: 54%
  FPF greater than precipitated material: over 200%
